Laboratory results published in patent US20080287443A1, “Treatment of Subgingival Pocket Infections” (priority 2005, published 2008).
Entries after “also recorded” stand apart in the source; their conditions may differ.

Assays:
[1] = human, in vivo
Excerpt: (§1) In this example delmopinol was used as a rinse to treat a patient who had been cared for over a 2-year period. They had been diagnosed with Morbus Crohn (Crohn's Disease) and with oral complications presenting as severe gingival lesions and swollen gingiva. They had been treated with antibiotics (Zithromax) in the past to control their oral infections and routinely used Chlorhexidine 0.12% rinse solution to control the recolonization of pathogens. Chlorhexidine is used routinely for the control of gingival infection/inflammations as an adjunct to other oral hygiene measures. There are, however side-effects with Chlorhexidine, i.e. staining of teeth, loss of taste and a burning sensation. The alcohol content in the Chlorhexidine solution may also cause some problems for patients. The potential burning sensation was in this case problematic and the patient was not compliant with Chlorhexidine rinsing. The treatment routine was changed and they were asked to rinse with 0.2% w/v delmopinol once daily for 14 days (instead of chlorhexidine). They had been given a professional cleaning of their teeth prior to rinsing with Delmopinol but no systemic antibiotics were prescribed. Zithromax was used 6 months prior the current treatment. The following clinical observations were made: 1.

[2] = tested on: Aggregatibacter actinomycetemcomitans; assay: Level of key pathogen in sub-gingival samples; assay type: in vivo; conditions: sub-gingival samples after 14 day rinse; FIG. 2
Excerpt: (§2) FIG. 2 illustrates the reduction of Treponema denticola and Aggregatibacter actinomycetemcomitans after the 14 day course of delmopinol treatment. The treatment routine was changed and they were asked to rinse with 0.2% w/v delmopinol once daily for 14 days (instead of chlorhexidine). They had been given a professional cleaning of their teeth prior to rinsing with Delmopinol but no systemic antibiotics were prescribed. Zithromax was used 6 months prior the current treatment. In addition, a reduction of some key pathogens were found.

Treponema denticola = assay: Level of key pathogen in sub-gingival samples; assay type: in vivo; conditions: sub-gingival samples after 14 day rinse; FIG. 2
Excerpt: as §2

gingival inflammation = assay: Clinical observation of gingival inflammation after delmopinol rinsing; assay type: in vivo, human; conditions: one patient, 0.2% w/v rinse once daily for 14 days
Excerpt: as §1, with “2.” for “1.”

Porphyromonas gingivalis = assay: Level of key pathogen in sub-gingival samples; assay type: in vivo; conditions: sub-gingival samples after 14 day rinse
Excerpt: as §2, with “The” for “FIG. 2 illustrates the reduction of Treponema denticola and Aggregatibacter actinomycetemcomitans after the 14 day course of delmopinol treatment. The”

Tannerella forsythia = assay: Level of key pathogen in sub-gingival samples; assay type: in vivo; conditions: sub-gingival samples after 14 day rinse
Excerpt: as §2, with “The” for “FIG. 2 illustrates the reduction of Treponema denticola and Aggregatibacter actinomycetemcomitans after the 14 day course of delmopinol treatment. The”

[3] = tested on: total bacterial load from sub-gingival samples; assay: Total bacterial load in sub-gingival samples from four sub-gingival pockets; assay type: in vivo, human; conditions: pockets 13, 23, 37 and 42; after 2 week rinse vs before; FIG. 1
Excerpt: FIG. 1 illustrates the sub-gingival reduction in bacterial load, in four selected sub-gingival pockets, after a 14 day course of delmopinol rinsing (once daily); and The treatment routine was changed and they were asked to rinse with 0.2% w/v delmopinol once daily for 14 days (instead of chlorhexidine). They had been given a professional cleaning of their teeth prior to rinsing with Delmopinol but no systemic antibiotics were prescribed. Zithromax was used 6 months prior the current treatment.

## CCCC(CCC)CCCC1COCCN1CCO (stereo not shown) [delmopinol, 3-(4-propyl-heptyl)-4-(2-hydroxyethyl)morpholine]
[1]
  side-effects reported by the patient (staining, burning sensation): no staining or burning sensation
[2]
  level of Aggregatibacter actinomycetemcomitans: significantly reduced; also recorded: eliminated
Treponema denticola
  level of Treponema denticola: significantly reduced
Gingival inflammation
  extent of gingival inflammation (bleeding on probing, gingival swelling, ulcerations): clinically reduced
Porphyromonas gingivalis
  level of Porphyromonas gingivalis: not reduced
Tannerella forsythia
  level of Tannerella forsythia: not reduced
[3]
  total bacterial load from sub-gingival samples: significant reduction
